Assay results taken from patent US20250344734A1, “UNSATURATED FATTY ACIDS AND THEIR USE TO MODIFY TASTE” (Firmenich Incorporated, priority 2022, published 2025).

Columns and labels:
Type in all cases: cell-based
Conditions in all cases: unsaturated fatty acid concentration of 200 µM, cells stimulated with known bitter agonist
T2R61 (TAS2R43) = molecular target: T1, T2R61 (TAS2R43) (Homo sapiens, UniProt P59537); assay: FLIPR calcium assay, block of bitter agonist response, T2R61
T1 construct: expressed in transfected cells; host or cells: cells expressing a promiscuous G protein (e.g., G16g44)
T1 sequence (P59537 1-309): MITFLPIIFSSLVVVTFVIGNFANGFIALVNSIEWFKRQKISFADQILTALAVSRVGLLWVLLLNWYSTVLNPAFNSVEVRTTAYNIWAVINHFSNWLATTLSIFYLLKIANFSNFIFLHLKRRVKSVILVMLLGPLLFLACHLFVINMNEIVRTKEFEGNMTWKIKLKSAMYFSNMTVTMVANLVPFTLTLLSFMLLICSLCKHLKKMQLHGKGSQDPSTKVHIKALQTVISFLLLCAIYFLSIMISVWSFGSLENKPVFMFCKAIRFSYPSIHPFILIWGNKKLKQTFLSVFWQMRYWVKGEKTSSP
Protocol: (§1) Cells expressing a promiscuous […] (e.g., G16g44) were transfected with vectors encoding 18 functional bitter receptor cDNAs, with one receptor per transfection. The cells were transfected directly in 384-well format high-density plates and incubated for 28 hours. Later, cells were loaded with the Ca-specific dye Fluo4-AM. After an incubation of 60 minutes, excess dye is washed off, and cells are stimulated with a known bitter agonist for each receptor and various unsaturated fatty acids. Changes in intracellular fluorescence are recorded using a FLIPR instrument. Bitter antagonists and corresponding receptors are identified based on percentage inhibition of agonist's activity on a given receptor.
(§2) The above protocol was carried out using 16 different unsaturated fatty acids. A particular T2R receptor was identified as being antagonized by a particular unsaturated fatty acid if it triggered a >25% block of agonist's cellular response at 200 μM concentration of unsaturated fatty acid. […] Table 2 indicates the sixteen (16) compounds tested by their compound number from Table 1 above. The 18 bitter taste receptors screened are the human bitter taste receptors we named. […]

T2R63 (TA2R20) = molecular target: T2, T2R63 (TA2R20) (Homo sapiens, UniProt P59543); assay: FLIPR calcium assay, block of bitter agonist response, T2R63
T2 construct: expressed in transfected cells; host or cells: cells expressing a promiscuous G protein (e.g., G16g44)
T2 sequence (P59543 1-309): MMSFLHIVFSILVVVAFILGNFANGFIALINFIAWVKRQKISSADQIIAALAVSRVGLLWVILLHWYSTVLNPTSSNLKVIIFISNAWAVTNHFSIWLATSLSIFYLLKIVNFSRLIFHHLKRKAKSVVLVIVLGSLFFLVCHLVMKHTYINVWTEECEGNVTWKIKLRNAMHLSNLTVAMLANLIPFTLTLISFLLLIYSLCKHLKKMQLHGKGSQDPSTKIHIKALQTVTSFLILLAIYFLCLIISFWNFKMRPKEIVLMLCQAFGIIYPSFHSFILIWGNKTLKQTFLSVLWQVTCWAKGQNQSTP
Protocol: as §1, §2

T2R16 (TAS2R16) = molecular target: T3, T2R16 (TAS2R16) (Homo sapiens, UniProt Q9NYV7); assay: FLIPR calcium assay, block of bitter agonist response, T2R16
T3 construct: expressed in transfected cells; host or cells: cells expressing a promiscuous G protein (e.g., G16g44)
T3 sequence (Q9NYV7 1-291): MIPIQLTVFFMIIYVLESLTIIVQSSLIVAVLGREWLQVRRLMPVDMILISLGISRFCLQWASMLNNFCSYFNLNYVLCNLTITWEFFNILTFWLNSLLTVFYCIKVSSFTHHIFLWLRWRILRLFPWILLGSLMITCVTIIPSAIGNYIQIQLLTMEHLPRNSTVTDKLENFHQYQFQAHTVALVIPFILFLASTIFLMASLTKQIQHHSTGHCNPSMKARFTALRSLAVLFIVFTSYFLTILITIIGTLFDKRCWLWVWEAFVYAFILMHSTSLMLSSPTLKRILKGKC
Protocol: as §1, §2

T2R13 (TAS2R13) = molecular target: T4, T2R13 (TAS2R13) (Homo sapiens, UniProt Q9NYV9); assay: FLIPR calcium assay, block of bitter agonist response, T2R13
T4 construct: expressed in transfected cells; host or cells: cells expressing a promiscuous G protein (e.g., G16g44)
T4 sequence (Q9NYV9 1-303): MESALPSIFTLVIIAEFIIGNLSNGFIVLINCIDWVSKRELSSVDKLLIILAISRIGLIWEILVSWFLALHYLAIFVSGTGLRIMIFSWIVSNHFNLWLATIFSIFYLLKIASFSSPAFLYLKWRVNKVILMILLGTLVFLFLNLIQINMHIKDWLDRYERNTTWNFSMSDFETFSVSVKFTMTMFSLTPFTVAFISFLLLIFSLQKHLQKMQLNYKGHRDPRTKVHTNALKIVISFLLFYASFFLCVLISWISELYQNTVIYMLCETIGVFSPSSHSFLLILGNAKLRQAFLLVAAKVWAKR
Protocol: as §1, §2

T2R71 (TAS2R41) = molecular target: T5, T2R71 (TAS2R41) (Homo sapiens, UniProt P59536); assay: FLIPR calcium assay, block of bitter agonist response, T2R71
T5 construct: expressed in transfected cells; host or cells: cells expressing a promiscuous G protein (e.g., G16g44)
T5 sequence (P59536 1-307): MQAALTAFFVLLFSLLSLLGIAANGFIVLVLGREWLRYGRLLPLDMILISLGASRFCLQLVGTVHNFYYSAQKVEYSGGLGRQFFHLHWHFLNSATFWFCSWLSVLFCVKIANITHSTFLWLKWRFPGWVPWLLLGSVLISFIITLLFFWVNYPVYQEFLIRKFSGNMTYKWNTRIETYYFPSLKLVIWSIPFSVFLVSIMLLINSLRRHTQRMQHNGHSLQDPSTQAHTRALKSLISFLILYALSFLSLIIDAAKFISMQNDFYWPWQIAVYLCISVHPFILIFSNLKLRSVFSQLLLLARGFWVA
Protocol: as §1, §2

T2R67 (TAS2R50) = molecular target: T6, T2R67 (TAS2R50) (Homo sapiens, UniProt P59544); assay: FLIPR calcium assay, block of bitter agonist response, T2R67
T6 construct: expressed in transfected cells; host or cells: cells expressing a promiscuous G protein (e.g., G16g44)
T6 sequence (P59544 1-299): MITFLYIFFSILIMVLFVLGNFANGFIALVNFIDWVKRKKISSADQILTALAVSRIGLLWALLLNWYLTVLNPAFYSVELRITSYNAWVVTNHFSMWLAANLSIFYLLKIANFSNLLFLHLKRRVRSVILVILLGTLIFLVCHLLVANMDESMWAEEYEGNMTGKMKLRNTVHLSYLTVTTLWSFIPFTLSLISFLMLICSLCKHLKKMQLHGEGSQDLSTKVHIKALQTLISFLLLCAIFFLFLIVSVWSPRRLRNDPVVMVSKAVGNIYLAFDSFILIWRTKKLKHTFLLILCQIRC
Protocol: as §1, §2

T2R04 (TAS2R04) = molecular target: T7, T2R04 (TAS2R04) (Homo sapiens, UniProt Q9NYW5); assay: FLIPR calcium assay, block of bitter agonist response, T2R04
T7 construct: expressed in transfected cells; host or cells: cells expressing a promiscuous G protein (e.g., G16g44)
T7 sequence (Q9NYW5 1-299): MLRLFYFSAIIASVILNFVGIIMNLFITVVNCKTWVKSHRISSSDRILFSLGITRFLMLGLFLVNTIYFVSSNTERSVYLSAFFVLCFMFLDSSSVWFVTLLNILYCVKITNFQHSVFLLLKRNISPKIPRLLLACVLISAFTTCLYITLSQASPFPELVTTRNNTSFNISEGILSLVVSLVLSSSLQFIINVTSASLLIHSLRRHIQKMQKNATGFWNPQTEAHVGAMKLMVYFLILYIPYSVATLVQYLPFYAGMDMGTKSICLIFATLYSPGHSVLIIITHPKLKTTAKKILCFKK
Protocol: as §1, §2

T2R03 (TAS2R03) = molecular target: T8, T2R03 (TAS2R03) (Homo sapiens, UniProt Q9NYW6); assay: FLIPR calcium assay, block of bitter agonist response, T2R03
T8 construct: expressed in transfected cells; host or cells: cells expressing a promiscuous G protein (e.g., G16g44)
T8 sequence (Q9NYW6 1-316): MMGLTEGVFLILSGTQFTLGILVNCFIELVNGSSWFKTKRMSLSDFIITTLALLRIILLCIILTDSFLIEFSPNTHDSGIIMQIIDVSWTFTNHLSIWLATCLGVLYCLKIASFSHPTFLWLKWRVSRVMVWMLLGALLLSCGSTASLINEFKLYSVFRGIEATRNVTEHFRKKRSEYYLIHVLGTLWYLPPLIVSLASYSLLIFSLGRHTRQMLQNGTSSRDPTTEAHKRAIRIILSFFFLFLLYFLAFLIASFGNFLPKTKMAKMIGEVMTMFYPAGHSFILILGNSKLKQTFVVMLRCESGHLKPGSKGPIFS
Protocol: as §1, §2

## CCCCC/C=C/C(=O)O [Compound 103]
T2R61 (TAS2R43)
  percentage block of cellular response over baseline, 61: >85%
T2R63 (TA2R20)
  percentage block of cellular response over baseline, 63: 30%
T2R16 (TAS2R16)
  percentage block of cellular response over baseline, 16: >25%
T2R13 (TAS2R13)
  percentage block of cellular response over baseline, 13: >30%
T2R71 (TAS2R41)
  percentage block of cellular response over baseline, 71: >30%
T2R67 (TAS2R50)
  percentage block of cellular response over baseline, 67: 30%
T2R04 (TAS2R04)
  percentage block of cellular response over baseline, 04: >99%
T2R03 (TAS2R03)
  percentage block of cellular response over baseline, 03: >30%
